This is an account of results in patent publication US8907106B2, “Process for the resolution of enantiomers by preferential evaporative crystallization” (Universite de Rouen, priority 2009, dated 2014).

Structures are written as SMILES.

The data set in a line: Solubility of the racemic mixture in methanol. It is filed as physicochemical.

Take `O=C([O-])C(O)c1ccccc1Cl.[Na+]` (racemic) [Sodium 2-chloromandelate]: the “difference in solubility of the racemic mixture between 40° C. and 20° C.” value (40° C. vs 20° C., in absolute value, solvent of Example 2 is methanol) came to 0.85%. In addition, under “methanol at reflux”, the “Solubility of the racemic mixture in the methanol at reflux” value is listed as 23%.
